In paper PMC5118709, “Identification of Polo-like kinase 1 interaction inhibitors using a novel cell-based assay” (Scientific Reports, 2016):
Where “and” joins values, the source holds several entries; their conditions need not be identical. Identical values can stand only once.

Key:
[1] = target: T1, CRAF-BRAF (Homo sapiens, UniProt P04049+P15056); assay: control BRET CRAF-BRAF (transient); format: cell-based
T1 construct: expressed in transfected cells; host or cells: HEK293T, transient transfection with PEI
T1 sequence (P04049 whole entry): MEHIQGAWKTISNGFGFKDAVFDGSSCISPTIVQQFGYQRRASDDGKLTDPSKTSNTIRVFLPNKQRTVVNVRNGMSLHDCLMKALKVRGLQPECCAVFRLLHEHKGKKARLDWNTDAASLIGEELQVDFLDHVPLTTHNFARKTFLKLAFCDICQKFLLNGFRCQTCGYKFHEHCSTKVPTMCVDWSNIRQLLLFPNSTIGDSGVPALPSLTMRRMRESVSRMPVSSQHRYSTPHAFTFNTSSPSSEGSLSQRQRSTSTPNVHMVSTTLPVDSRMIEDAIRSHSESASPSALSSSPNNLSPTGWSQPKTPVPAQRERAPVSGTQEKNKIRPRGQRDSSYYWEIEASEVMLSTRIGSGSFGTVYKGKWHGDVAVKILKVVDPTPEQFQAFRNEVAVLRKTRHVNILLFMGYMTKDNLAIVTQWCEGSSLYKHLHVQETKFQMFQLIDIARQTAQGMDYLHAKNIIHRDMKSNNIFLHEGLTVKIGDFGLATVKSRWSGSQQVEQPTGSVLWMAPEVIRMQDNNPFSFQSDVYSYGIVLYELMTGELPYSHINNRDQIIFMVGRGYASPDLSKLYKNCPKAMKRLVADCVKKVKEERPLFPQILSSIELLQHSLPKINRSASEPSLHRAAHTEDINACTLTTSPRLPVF
T1 sequence (P15056 whole entry): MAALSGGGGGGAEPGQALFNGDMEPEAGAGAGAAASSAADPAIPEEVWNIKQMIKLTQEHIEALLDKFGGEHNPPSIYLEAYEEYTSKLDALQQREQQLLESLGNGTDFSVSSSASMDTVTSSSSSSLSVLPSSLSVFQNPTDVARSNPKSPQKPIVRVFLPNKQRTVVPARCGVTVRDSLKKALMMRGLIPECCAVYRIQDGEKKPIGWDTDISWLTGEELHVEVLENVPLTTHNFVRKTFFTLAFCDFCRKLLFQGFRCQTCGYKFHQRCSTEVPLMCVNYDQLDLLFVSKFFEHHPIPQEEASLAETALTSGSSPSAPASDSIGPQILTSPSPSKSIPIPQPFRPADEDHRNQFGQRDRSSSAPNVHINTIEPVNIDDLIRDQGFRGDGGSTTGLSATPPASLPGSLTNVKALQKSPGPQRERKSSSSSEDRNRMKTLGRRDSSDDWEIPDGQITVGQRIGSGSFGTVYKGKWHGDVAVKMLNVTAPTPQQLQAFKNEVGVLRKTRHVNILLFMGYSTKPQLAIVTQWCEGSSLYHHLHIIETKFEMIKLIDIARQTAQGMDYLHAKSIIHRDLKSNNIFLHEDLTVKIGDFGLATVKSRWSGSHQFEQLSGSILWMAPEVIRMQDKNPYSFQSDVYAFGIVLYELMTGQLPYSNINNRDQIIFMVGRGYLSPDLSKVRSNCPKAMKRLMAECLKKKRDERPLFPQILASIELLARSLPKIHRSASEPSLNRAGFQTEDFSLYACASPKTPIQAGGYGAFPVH
Experimental: We used our cell-based assay to screen a library of 112 983 compounds available in-house at IRIC’s High-Throughput Screening (HTS) platform (see Materials & Methods). Compounds were tested on cells in 384-well plates at concentrations between 10 μM and 25 μM, depending on their concentration in the original stocks solutions. BRET readings were taken 2 hours after treatment. Results obtained show a tight, close to normal distribution centered around zero inhibition relative to DMSO-treated controls (Fig. 1D). Compounds inducing at least 30% BRET inhibition were selected. From these, auto-fluorescent compounds and those that induced more than 90% reduction in RLucII luminescence were removed, leaving 800 primary hits, that we then re-tested using the same assay. In parallel, we tested these compounds in a control BRET assay for an unrelated pair of interacting proteins (BRAF-CRAF[46]) to exclude false-positive compounds that could reduce the BRET signal by interfering with light or by modifying the activity of GFP or Luc.
(§1) For the confirmation screen, the same procedure as for the primary screen was followed, except that HEK293T cells were also seeded at 6.25 millions of cells per simple CellStack on day 1 for transient transfections. These cells were transfected on day 3 with Luc-Map (5 μg) and Plk1-GFP (25 μg) pIRESHyg3 plasmids using polyethylenimine (PEI). To identify false-positives compounds, Luc-CRAF (4 μg) and GFP-BRAF (20 μg) plasmids were also transfected with PEI following the published procedure.

[2] = target: GST-PBD367-603 of Plk1 (Homo sapiens, UniProt P53350); assay: fluorescence polarization assay PBD-phosphopeptide
GST-PBD367-603 of Plk1, sequence (P53350 367-603): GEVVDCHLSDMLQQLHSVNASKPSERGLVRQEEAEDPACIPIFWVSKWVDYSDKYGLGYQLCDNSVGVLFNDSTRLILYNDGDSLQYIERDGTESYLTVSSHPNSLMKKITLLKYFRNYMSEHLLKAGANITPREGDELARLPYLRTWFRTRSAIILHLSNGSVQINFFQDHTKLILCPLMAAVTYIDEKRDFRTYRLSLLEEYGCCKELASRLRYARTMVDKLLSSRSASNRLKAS
Source text: In this assay, an optimal phosphopeptide for PBD binding is coupled with a FITC fluorophore and its binding to purified recombinant PBD of Plk1 is monitored by the change in polarization of incident light.

[3] = system: HEK293T cells; assay: mitotic index assay (phospho-Histone H3) in HEK293T cells; details: 10 μM
Experimental: For the mitotic index assay, 4000 HeLa cells or 5000 HEK293T cells per well were seeded in a 96-well plate. The day after, cells were incubated for 7 hours with different compounds, and then fixed by adding formaldehyde (4% final concentration) directly to each well. Plates were incubated 20 minutes at 37 °C, and then wells were rinsed three times with TBS-Tween 0.1%. A 1 hour block with PHEM buffer (60 mM Pipes, 25 mM HEPES, 10 mM EGTA, 4 mM MgSO4, pH 6.9) containing 2% BSA and 0.1% triton was performed, before addition of the primary antibody to the wells. The anti-phospho-Histone H3 (Ser10) antibody (EMD Millipore) was diluted 1:300 in PHEM buffer containing 2% BSA and added to the wells for 2 hours at room temperature in the dark. […] Plates were incubated for 1h 30 at room temperature in the dark, and then wells were washed 3 times with TBS-Tween 0.1%. A solution of Mowiol containing DAPI was finally added to the wells. Plates were kept at 4 °C in the dark until imaging using the 20x objective on an Operetta system (Perkin Elmer inc.). The mitotic index, corresponding to the percentage of pHH3 positive cells relative to the total number of DAPI-stained cells detected was calculated by the Operetta using the Harmony 3.5 software. Experiments were done in triplicates.

[4] = system: HeLa cells; assay: mitotic index assay (phospho-Histone H3) in HeLa cells; format: cell-based; details: 10-25 μM, 7 h
[5] = stability by LC-MS; format: physicochemical
Source text: Based on these observations, we speculated that the sulfone undergoes a β-elimination of the benzoate subunit to generate a vinyl sulfone which is responsible for the biological activity of this class of compounds. Using LCMS, we evaluated the stability of Cpd 16 in the buffer used in the FP assay. […] The sulfone β-elimination is a base-catalysed process and the buffer used in the assay is basic enough to allow the reaction to occur. Under neutral or acidic conditions, the compound was very stable and no fragmentation was observed.
Cpd 161, which is 2-((6-methyl-4-(trifluoromethyl)pyridin-2-yl)sulfonyl)ethyl 3-chlorobenzoate (400 μM final concentration), was added to 500 μl of FP buffer (previously described).

[6] = target: T2, Plk1-Map interaction (Homo sapiens, UniProt P53350); assay: LUMIER co-immunoprecipitation assay Plk1-Map
T2 sequence (P53350 whole entry): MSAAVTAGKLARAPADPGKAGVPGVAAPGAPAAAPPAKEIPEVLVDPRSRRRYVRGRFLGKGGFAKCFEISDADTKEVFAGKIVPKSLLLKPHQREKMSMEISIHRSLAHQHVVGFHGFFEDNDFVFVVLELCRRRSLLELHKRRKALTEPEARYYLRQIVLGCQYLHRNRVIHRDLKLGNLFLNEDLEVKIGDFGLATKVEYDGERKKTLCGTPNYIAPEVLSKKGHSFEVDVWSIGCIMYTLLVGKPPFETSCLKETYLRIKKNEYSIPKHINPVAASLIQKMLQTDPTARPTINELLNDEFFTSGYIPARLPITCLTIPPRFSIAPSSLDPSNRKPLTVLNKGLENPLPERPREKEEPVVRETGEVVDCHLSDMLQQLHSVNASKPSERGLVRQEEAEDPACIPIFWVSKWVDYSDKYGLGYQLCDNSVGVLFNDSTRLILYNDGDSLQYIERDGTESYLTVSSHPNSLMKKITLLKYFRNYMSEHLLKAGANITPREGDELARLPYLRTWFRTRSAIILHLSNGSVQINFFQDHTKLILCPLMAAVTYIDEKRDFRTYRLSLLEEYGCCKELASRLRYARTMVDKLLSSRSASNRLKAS
Experimental: After cell lysis, GFP-Plk1 was immunoprecipitated and co-purified Map-Luc was measured by luminescence following addition of the luciferase substrate, coelenterazine.
Half a million stably transfected Map205-RLucII/GFP10-Plk1 cells in Tyrode solution were seeded per well in a 96-well plate and allowed to settle for 30 min at 37 °C. […] Plates were then centrifuged at 4 °C at 3000 rpm for 5 minutes to pellet cells. Cells were then lysed with the IP buffer (20 mM Tris pH 7.5, 150 mM NaCl, 2 mM EGTA, 0.5% NP-40, 1 mM DTT, PMSF, aprotinin and leupeptin) and incubated on ice for 20 minutes. Plates were centrifuged again at 4 °C at 3400 rpm for 10 minutes, and the soluble fraction was transferred into a new 96-well plate. Note that 10 μl of this fraction was transferred in white 96-well plates from which the luminescence was read as a measure of the input amount of cell lysate for the co-IP. GFP-Plk1 was immunoprecipitated by adding 0.35 μl of anti-GFP antibody (Invitrogen). Plates were sealed and incubated on a rotator at 4 °C for 30 minutes. Then, 4 μl of pre-washed protein A magnetic beads (Invitrogen) were added to each well. Plates were sealed and incubated at 4 °C for 1h30. The extracts + beads were then transferred in a 96-well PCR plates and beads were washed 3 times with the IP buffer using a magnetic 96-well rack. The fourth wash was done in Tyrode solution, then beads were re-suspended with it and transferred in a white 96-well plate. […] Tyrode was also added to the plates containing the input fraction, then Coelenterazine h was added to the wells, and enhanced luminescence was read as described above.

[7] = target: T2, Plk1-Map interaction; assay: BRET Plk1-Map, transient Luc-Map/Plk1-GFP in HEK293T; format: cell-based; set-up: cDNAs for the human full length Plk1; expressed in transfected cells; details: confirmation screen
Experimental: as §1

[8] = target: PBD of Plk1 (Homo sapiens, UniProt P53350); assay: fluorescence polarization assay PBD-Map peptide; format: binding
PBD of Plk1, sequence (P53350 367-603 limits assumed): as the sequence (P53350 367-603) above
Experimental: The FP buffer was composed of 10 mM Tris pH 8.0, 50 mM NaCl, 1 mM EDTA, 20% glycerol and 0.1% NP-40. The peptide (final concentration 10 nM) was always added to the wells of non-binding, black, 384-well plates, 1 hour after the addition of the protein with the buffer (+/− treatment, 10% DMSO). […] EC65s were used to perform the competitive assays with the non-labeled peptides and with the inhibitors. FP Inhibition was calculated with the formula: 100 − [((mPsample − mPfree peptide)\(mPDMSO − mPfree peptide)) × 100]. […] (Map peptide), and corresponding non-labeled peptides are identical but without FITC in N-terminal. […] Inhibition curves were fitted with GraphPad (Prism software).

[9] = target: T3, Plk1 (Homo sapiens, UniProt P53350); assay: localization of Plk1 in mitotic cells; format: cell-based; details: up to 100 μM, data not shown
T3 construct: localization of Plk1-GFP or endogenous Plk1 from mitotic centrosomes, kinetochores or the cytokinetic midbody; endogenous in cells
T3 sequence (P53350 whole entry): as the sequence (P53350 whole entry) above

- Primary screen CRAF-BRAF (transient) % Inihibition ([1]; 10-25 μM): 52.83%
- Primary screen CRAF-BRAF (transient) % Quench RLuc ([1]; 10-25 μM): 88.39%
- Confirmation CRAF-BRAF (transient) % Inihibition ([1]; confirmation screen): 0.37%
- Confirmation CRAF-BRAF (transient) % Quench RLuc ([1]; confirmation screen): 80.17%
- IC50 ([2]; FP - IC50 (μM), Table S3): 18.4 ± 10.2 µM
- IC50 ([2]; IC50 in FP, GST-PBD367-603 38 nM, 1 h pre-incubation, FITC-phosphopeptide 10 nM, Fig. 4C): ~16 µM and 16 µM
- stability in the FP buffer ([5]; approximate pH 8.0, a few minutes (approximately 10 minutes)): fragmentation occurred
- stability ([5]; neutral or acidic conditions): very stable
- Average-Beads (mean luminescence) ([6]; 10-25 μM, 2 h): 25,276
- Co-IP Values relative to top in plate column = 1 ([6]; 10-25 μM, 2 h): 0.022
- Relative Luminescence Unit ([6]; mean divided by maximum mean of the compounds): 0.022
- Luminescence on beads, duplicate wells ([6]; raw data, 10-25 μM, 2 h): 21,904 and 28,648
- Confirmation Plk1-Map (transient) % Inihibition [7]: 30.06%
- Confirmation Plk1-Map (transient) % Quench RLuc [7]: 74.57%
- disruption of the PBD-Map interaction in FP [8]: disrupted the PBD-Map interaction
- effect on localization of Plk1 in mitotic cells [9]: did not result in a significant decrease
SMILES: Cc1cc(C(F)(F)F)cc(S(=O)(=O)CCOC(=O)c2cccc(Cl)c2)n1 [Cpd 16, 2-((6-methyl-4-(trifluoromethyl)pyridin-2-yl)sulfonyl)ethyl 3-chlorobenzoate]
- effect on mitotic index, purchased compounds [3]: effective
- Mitotic index (%) [4]: 15.73%
- effect on the Plk1-Map interaction in co-IP ([6]; 10-25 μM, 2 h): disrupts the interaction with similar or better efficiency than TQ or PPG
